The values below come from ChEMBL document CHEMBL1149543, “Discovery of inhibitors of the pentein superfamily protein dimethylarginine dimethylaminohydrolase (DDAH), by virtual screening and hit analysis” (Bioorg Med Chem Lett, 2007).

This assay can be described thus: Inhibition of Pseudomonas aeruginosa DDAH.

By IC50 is commonly meant the concentration at which inhibition is half-maximal. A low value points to higher potency. On to `O=C(Cn1cc(/C=C2\C(=O)NC(=S)N(c3ccccc3)C2=O)c2ccccc21)NCc1ccco1`, for which the IC50 is 16.9 µM.

`O=C(Cn1cc(C=C2C(=O)NC(=S)NC2=O)c2ccccc21)NCc1ccco1` gave a concentration for half-maximal inhibition (IC50) of 6.4 µM.

Compound `COc1ccc(N2C(=O)/C(=C/c3c[nH]c4ccccc34)C(=O)NC2=S)cc1` returned an IC50 of 2 µM.
